{
  "source": "ChEMBL document CHEMBL6121007",
  "about": "“Design, synthesis and evaluation of pyrimidine derivatives as sedative-hypnotic agents” (Eur J Med Chem, 2025)",
  "key": {"Mus musculus [1]": {"test_system": "Mus musculus", "test": "Sedative-hypnotic activity in mouse assessed as decrease in number of square crossing at 50 mg/kg, ip administrated as single dose and measured after 30 mins by open field test", "format": "functional, organism-based"}, "Mus musculus [2]": {"test_system": "Mus musculus", "test": "Sedative-hypnotic activity in mouse assessed as decrease in number of square crossing at 2.5 mg/kg, ip administrated as single dose and measured within 3 mins by open field test", "format": "functional, organism-based"}, "Mus musculus [3]": {"test_system": "Mus musculus", "test": "Sedative-hypnotic activity in mouse assessed as decrease in number of square crossing at 0.1 to 0.5 mg/kg, ip administrated as single dose and measured within 3 mins by open field test", "format": "functional, organism-based", "conditions": "dose 0.1-0.5 mg/kg"}, "Mus musculus [4]": {"test_system": "Mus musculus", "test": "Sedative-hypnotic activity in mouse assessed as decrease in grip strength score at 0.1 to 2.5 mg/kg, ip administrated as single dose and measured after 30 mins by grip strength test", "format": "functional, organism-based", "conditions": "dose 0.1-2.5 mg/kg"}, "Mus musculus [5]": {"test_system": "Mus musculus", "test": "In vivo activation of cAMP/PKA/CREB signaling pathway in mouse assessed as increase in cAMP level in hypothalamus at 2.5 mg/kg, ip measured after 30 mins by ELISA analysis", "format": "functional, organism-based"}, "Mus musculus [6]": {"test_system": "Mus musculus", "test": "In vivo activation of cAMP/PKA/CREB signaling pathway in mouse assessed as increase in CREB phosphorylation in hypothalamus at 2.5 mg/kg, ip measured after 30 mins by Western blot analysis", "format": "functional, organism-based"}, "[7]": {"test": "Half life in male Sprague-Dawley rat at 2.5 mg/kg, ip measured after 5 to 1440 mins by LC-MS/MS analysis", "format": "ADME, organism-based", "conditions": "in vivo, time 5-1440 min"}, "[8]": {"test": "Tmax in male Sprague-Dawley rat at 2.5 mg/kg, ip measured after 5 to 1440 mins by LC-MS/MS analysis", "format": "ADME, organism-based", "conditions": "in vivo, time 5-1440 min"}, "[9]": {"test": "Cmax in male Sprague-Dawley rat at 2.5 mg/kg, ip measured after 5 to 1440 mins by LC-MS/MS analysis", "format": "ADME, organism-based", "conditions": "in vivo, time 5-1440 min"}, "[10]": {"test": "AUC (0 to infinity) in male Sprague-Dawley rat at 2.5 mg/kg, ip measured after 5 to 1440 mins by LC-MS/MS analysis", "format": "ADME, organism-based", "conditions": "in vivo, time 5-1440 min"}, "[11]": {"test": "Clearance in male Sprague-Dawley rat at 0.5 mg/kg, iv measured after 2 to 720 mins by LC-MS/MS analysis", "format": "ADME, organism-based", "conditions": "in vivo, time 2-720 min"}, "[12]": {"test": "Clearance in male Sprague-Dawley rat at 2.5 mg/kg, ip measured after 5 to 1440 mins by LC-MS/MS analysis", "format": "ADME, organism-based", "conditions": "in vivo, time 5-1440 min"}, "[13]": {"test": "Apparent volume of distribution in male Sprague-Dawley rat at 2.5 mg/kg, ip measured after 5 to 1440 mins by LC-MS/MS analysis", "format": "ADME, organism-based", "conditions": "in vivo, time 5-1440 min"}, "[14]": {"test": "Drug concentration in male mouse plasma at 10 mg/kg, ip measured after 1 hrs by LC-MS/MS analysis", "format": "ADME, organism-based"}, "[15]": {"test": "Drug concentration in male mouse plasma at 10 mg/kg, ip measured after 4 hrs by LC-MS/MS analysis", "format": "ADME, organism-based"}, "[16]": {"test": "Drug concentration in male mouse brain at 10 mg/kg, ip measured after 1 hrs by LC-MS/MS analysis", "format": "ADME, organism-based", "conditions": "read-out: Ct"}, "[17]": {"test": "Ratio of drug concentration in male mouse brain to plasma at 10 mg/kg, ip measured after 4 hrs by LC-MS/MS analysis", "format": "ADME, organism-based", "conditions": "brain and plasma, read-out: BPR"}, "Mus musculus [18]": {"test_system": "Mus musculus", "test": "Sedative-hypnotic activity in pentobarbital-induced mouse assessed as decrease in sleep latency at 0.2 to 5 mg/kg, ip", "format": "functional, organism-based", "conditions": "dose 0.2-5 mg/kg"}, "Mus musculus [19]": {"test_system": "Mus musculus", "test": "Upregulation of apoptosis related genes in hypothalamus of mouse at 2.5 mg/kg, ip measured after 30 mins by KEGG enrichment analysis relative to control", "format": "functional", "conditions": "0.5 h"}, "[20]": {"test": "Upregulation of cAMP signaling pathway related genes in hypothalamus of mouse at 2.5 mg/kg, ip measured after 30 mins by KEGG enrichment analysis relative to control", "format": "functional", "conditions": "0.5 h"}, "Mus musculus [21]": {"test_system": "Mus musculus", "test": "Upregulation of calcium signaling pathway related genes in hypothalamus of mouse at 2.5 mg/kg, ip measured after 30 mins by KEGG enrichment analysis relative to control", "format": "functional", "conditions": "0.5 h"}, "[22]": {"test": "Upregulation of Wnt signaling pathway related genes in hypothalamus of mouse at 2.5 mg/kg, ip measured after 30 mins by KEGG enrichment analysis relative to control", "format": "functional", "conditions": "0.5 h"}, "[23]": {"test": "Upregulation of mTOR signaling pathway related genes in hypothalamus of mouse at 2.5 mg/kg, ip measured after 30 mins by KEGG enrichment analysis relative to control", "format": "functional", "conditions": "0.5 h"}, "[24]": {"test": "Upregulation of Rap1 signaling pathway related genes in hypothalamus of mouse at 2.5 mg/kg, ip measured after 30 mins by KEGG enrichment analysis relative to control", "format": "functional", "conditions": "0.5 h"}, "[25]": {"test": "Upregulation of Ras signaling pathway related genes in hypothalamus of mouse at 2.5 mg/kg, ip measured after 30 mins by KEGG enrichment analysis relative to control", "format": "functional", "conditions": "0.5 h"}, "Mus musculus [26]": {"test_system": "Mus musculus", "test": "Upregulation of ubiquitin mediated proteolysis related genes in hypothalamus of mouse at 2.5 mg/kg, ip measured after 30 mins by KEGG enrichment analysis relative to control", "format": "functional", "conditions": "0.5 h"}, "[27]": {"test": "Upregulation of human papillomavirus infection related genes in hypothalamus of mouse at 2.5 mg/kg, ip measured after 30 mins by KEGG enrichment analysis relative to control", "format": "functional", "conditions": "0.5 h"}, "Mus musculus [28]": {"test_system": "Mus musculus", "test": "Upregulation of neurodegeneration-multiple diseases pathways related genes in hypothalamus of mouse at 2.5 mg/kg, ip measured after 30 mins by KEGG enrichment analysis relative to control", "format": "functional", "conditions": "0.5 h"}, "[29]": {"test": "Upregulation of human T-cell leukemia virus 1 infection related genes in hypothalamus of mouse at 2.5 mg/kg, ip measured after 30 mins by KEGG enrichment analysis relative to control", "format": "functional", "conditions": "0.5 h"}, "[30]": {"test": "Upregulation of cushing syndrome related genes in hypothalamus of mouse at 2.5 mg/kg, ip measured after 30 mins by KEGG enrichment analysis relative to control", "format": "functional", "conditions": "0.5 h"}, "Mus musculus [31]": {"test_system": "Mus musculus", "test": "Upregulation of amphetamine addiction related genes in hypothalamus of mouse at 2.5 mg/kg, ip measured after 30 mins by KEGG enrichment analysis relative to control", "format": "functional", "conditions": "0.5 h"}, "Mus musculus [32]": {"test_system": "Mus musculus", "test": "Upregulation of arachidonic acid metabolism related genes in hypothalamus of mouse at 2.5 mg/kg, ip measured after 30 mins by KEGG enrichment analysis relative to control", "format": "functional", "conditions": "0.5 h"}, "Mus musculus [33]": {"test_system": "Mus musculus", "test": "Upregulation of serotonergic synapse related genes in hypothalamus of mouse at 2.5 mg/kg, ip measured after 30 mins by KEGG enrichment analysis relative to control", "format": "functional", "conditions": "0.5 h"}, "Mus musculus [34]": {"test_system": "Mus musculus", "test": "Upregulation of linoleic acid metabolism related genes in hypothalamus of mouse at 2.5 mg/kg, ip measured after 30 mins by KEGG enrichment analysis relative to control", "format": "functional", "conditions": "0.5 h"}, "Mus musculus [35]": {"test_system": "Mus musculus", "test": "Upregulation of parathyroid hormone secretion related genes in hypothalamus of mouse at 2.5 mg/kg, ip measured after 30 mins by KEGG enrichment analysis relative to control", "format": "functional", "conditions": "0.5 h"}, "Mus musculus [36]": {"test_system": "Mus musculus", "test": "Upregulation of glycine metabolism related genes in hypothalamus of mouse at 2.5 mg/kg, ip measured after 30 mins by KEGG enrichment analysis relative to control", "format": "functional", "conditions": "0.5 h"}, "[37]": {"test": "Upregulation of kaposi sarcoma-associated herpesvirus infection related genes in hypothalamus of mouse at 2.5 mg/kg, ip measured after 30 mins by KEGG enrichment analysis relative to control", "format": "functional", "conditions": "0.5 h"}},
  "note": "The source made the active and inactive calls. The rule behind the calls is not given here.",
  "data": [
    {"smiles": "CCn1c2ccccc2c2cc(Nc3ccnc(Nc4ccc(C)c(OC)c4)n3)ccc21", "values": [
      {"measurement": "Activity", "setting": "Mus musculus [1]", "result": "Active"},
      {"measurement": "Activity", "setting": "Mus musculus [2]", "result": "Active"},
      {"measurement": "Activity", "setting": "Mus musculus [3]", "result": "Active; No Significant Difference Compared With Control Mouse"},
      {"measurement": "Activity", "setting": "Mus musculus [4]", "result": "Active"},
      {"measurement": "Activity", "setting": "Mus musculus [5]", "result": "Active"},
      {"measurement": "Activity", "setting": "Mus musculus [6]", "result": "Active"},
      {"measurement": "half-life", "setting": "[7]", "result": 4.56, "unit": "h"},
      {"measurement": "Tmax", "setting": "[8]", "result": 4, "unit": "h"},
      {"measurement": "Cmax", "setting": "[9]", "result": 281, "unit": "ng/mL"},
      {"measurement": "AUC(0-inf)", "setting": "[10]", "result": 3300, "unit": "ng·h/mL"},
      {"measurement": "clearance", "setting": "[11]", "result": 9.53, "unit": "mL/min/kg"},
      {"measurement": "CL/F", "setting": "[12]", "result": 12.7, "unit": "mL/min/kg"},
      {"measurement": "Vd(app)", "setting": "[13]", "result": 5.023, "unit": "L/kg"},
      {"measurement": "concentration at 1 h", "setting": "[14]", "result": 75, "unit": "ng/mL"},
      {"measurement": "concentration at 4 h", "setting": "[15]", "result": 64.7, "unit": "ng/mL"},
      {"measurement": "concentration at 1 h", "setting": "[16]", "result": 15, "unit": "ng/mL"},
      {"measurement": "Kp at 4 h", "setting": "[17]", "result": 0.31},
      {"measurement": "Activity", "setting": "Mus musculus [18]", "result": "Active"},
      {"measurement": "Activity", "setting": "Mus musculus [19]", "result": 3.47, "unit": "%"},
      {"measurement": "Activity", "setting": "[20]", "result": 4.62, "unit": "%"},
      {"measurement": "Activity", "setting": "Mus musculus [21]", "result": 4.62, "unit": "%"},
      {"measurement": "Activity", "setting": "[22]", "result": 4.05, "unit": "%"},
      {"measurement": "Activity", "setting": "[23]", "result": 3.47, "unit": "%"},
      {"measurement": "Activity", "setting": "[24]", "result": 3.47, "unit": "%"},
      {"measurement": "Activity", "setting": "[25]", "result": 3.47, "unit": "%"},
      {"measurement": "Activity", "setting": "Mus musculus [26]", "result": 1.73, "unit": "%"},
      {"measurement": "Activity", "setting": "[27]", "result": 6.36, "unit": "%"},
      {"measurement": "Activity", "setting": "Mus musculus [28]", "result": 5.78, "unit": "%"},
      {"measurement": "Activity", "setting": "[29]", "result": 4.62, "unit": "%"},
      {"measurement": "Activity", "setting": "[30]", "result": 4.05, "unit": "%"},
      {"measurement": "Activity", "setting": "Mus musculus [31]", "result": 3.47, "unit": "%"},
      {"measurement": "Activity", "setting": "Mus musculus [32]", "result": 2.89, "unit": "%"},
      {"measurement": "Activity", "setting": "Mus musculus [33]", "result": 4.05, "unit": "%"},
      {"measurement": "Activity", "setting": "Mus musculus [34]", "result": 1.73, "unit": "%"},
      {"measurement": "Activity", "setting": "Mus musculus [35]", "result": 4.05, "unit": "%"},
      {"measurement": "Activity", "setting": "Mus musculus [36]", "result": 1.73, "unit": "%"},
      {"measurement": "Activity", "setting": "[37]", "result": 4.62, "unit": "%"}
    ]}
  ]
}
